Consider eight compounds from patent publication US20250197403A1, “HETEROARYL COMPOUNDS FOR TREATMENT OF COMPLEMENT FACTOR D MEDIATED DISORDERS” (Achillion Pharmaceuticals, Inc., priority 2020, published 2025).

Bounds are passed on as bounds.

For the assay, the target named is Human Factor D (Homo sapiens (Human), UniProt P00746). The assay can be described thus: Human Factor D Assay. The assay is classed as biochemical. The following applies: Human Factor D 80 nM, substrate Z-L-Lys-SBzl, assay according to Example 3. The protocol: The assay according to Example 3 was used to determine the IC50's of the compounds. Other standard factor D inhibition assays are also available.
Sequence of Human Factor D (P00746 26-253): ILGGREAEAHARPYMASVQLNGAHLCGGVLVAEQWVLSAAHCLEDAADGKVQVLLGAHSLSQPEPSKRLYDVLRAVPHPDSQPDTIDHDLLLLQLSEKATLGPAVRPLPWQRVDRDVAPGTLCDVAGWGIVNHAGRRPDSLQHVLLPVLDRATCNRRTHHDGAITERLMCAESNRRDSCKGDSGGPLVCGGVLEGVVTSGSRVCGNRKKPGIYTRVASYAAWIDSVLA
Human Factor D (purified from human serum, Complement Technology, Inc.) at 80 nM final concentration is incubated with test compound at various concentrations for 5 min at room temperature in 50 mM Tris, 1M NaCl, pH 7.5. A synthetic substrate Z-L-Lys-SBzl and DTNB (Ellman's reagent) are added to final concentrations of 100 μM each. Absorbance at 405 nm (A405) is recorded at 30 second intervals for 30 min using a microplate spectrophotometer. IC50 values are calculated by nonlinear regression of complement Factor D reaction rates as a function of test compound concentration.
For `COCc1ccc(C(F)(F)F)nc1NC(=O)[C@@H]1C[C@@]2(C)C[C@H]2N1C(=O)Cn1cc(C(C)=O)c2cc(-c3cnc4cc(C)nn4c3)c(F)c(C)c21` [Compound 2, (1R,3S,5R)-2-(2-(3-acetyl-6-fluoro-7-methyl-5-(2-methylpyrazolo[1,5-a]-pyrimidin-6-yl)-1H-indol-1-yl)acetyl)-N-(3-(meth-oxymethyl)-6-(trifluoro-methyl)pyridin-2-yl)-5-methyl-2-azabicyclo[3.1.0] hexane-3-carboxamide], the IC50 (commonly the midpoint of a concentration-inhibition curve) is < 1000 nM.
Next, `CC(=O)c1cn(CC(=O)N2[C@H](C(=O)Nc3nc(C(F)(F)F)ccc3Cl)C[C@@]3(C)C[C@@H]23)c2c(C)cc(-c3ccc4nc(C)nn4c3)cc12` [Compound 3, (1R,3S,5R)-2-(2-(3-acetyl-7-methyl-5-(2-methyl-[1,2,4]triazolo[1,5-a]pyr-idin-6-yl)-1H-indol-1-yl)-acetyl)-N-(3-chloro-6-(tri-fluoromethyl)pyridin-2-yl)-5-methyl-2-azabicyclo-[3.1.0]hexane-3-carbox-amide]: < 1000 nM.
Next, `COCc1ccc(C(F)(F)F)nc1NC(=O)[C@@H]1[C@@H]2C[C@@H]2CN1C(=O)Cn1cc(C(C)=O)c2cc(-c3ccc4nc(C)nn4c3)cc(C)c21` [Compound 4, (1R,2S,5S)-3-(2-(3-acetyl-7-methyl-5-(2-methyl-[1,2,4]triazolo[1,5-a]pyr-idin-6-yl)-1H-indol-1-yl)-acetyl)-N-(3-(methoxy-methyl)-6-(trifluorometh-yl)pyridin-2-yl)-3-aza-bicyclo[3.1.0]hexane-2-carboxamide]: < 1000 nM.
To `COCc1ccc(C(F)(F)F)nc1NC(=O)[C@@H]1C[C@@]2(C)C[C@H]2N1C(=O)Cn1cc(C(C)=O)c2cc(-c3ccc4nc(C)nn4c3)c(F)c(C)c21` [Compound 5, (1R,3S,5R)-2-(2-(3-acetyl-6-fluoro-7-methyl-5-(2-methyl-[1,2,4]triazolo[1,5-a]pyridin-6-yl)-1H-indol-1-yl)acetyl)-N-(3-(meth-oxymethyl)-6-(trifluoro-methyl)pyridin-2-yl)-5-methyl-2-azabicyclo[3.1.0] hexane-3-carboxamide] belongs < 1000 nM.
Turning to `CC(=O)c1cn(CC(=O)N2C[C@H]3C[C@H]3[C@H]2C(=O)Nc2nc(C(F)(F)F)ccc2Cl)c2c(C)cc(-c3cnc4cc(C)nn4c3)cc12` [Compound 6, (1R,2S,5S)-3-(2-(3-acetyl-7-methyl-5-(2-methylpyr-azolo[1,5-a]pyrimidin-6-yl)-1H-indol-1-yl)acetyl)-N-(3-chloro-6-(trifluoro-methyl)pyridin-2-yl)-3-azabicyclo[3.1.0]hexane-2-carboxamide], the 50% inhibitory concentration (IC50) was < 1000 nM.
With `COCc1ccc(C(F)(F)F)nc1NC(=O)[C@@H]1[C@@H]2C[C@@H]2CN1C(=O)Cn1cc(C(C)=O)c2cc(-c3cnc4cc(C)nn4c3)cc(C)c21` [Compound 7, (1R,2S,5S)-3-(2-(3-acetyl-7-methyl-5-(2-methylpyr-azolo[1,5-a]pyrimidin-6-yl)-1H-indol-1-yl)acetyl)-N-(3-(methoxymethyl)-6-(trifluoromethyl)pyridin-2-yl)-3-azabicyclo[3.1.0] hexane-2-carboxamide], the IC50 was < 1000 nM.
As for `CC(=O)c1cn(CC(=O)N2[C@H](C(=O)Nc3nc(Br)ccc3C3CC3)C[C@@]3(C)C[C@@H]23)c2c(C)cc(-c3cnc4cc(C)nn4c3)cc12` [Compound 8, (1R,3S,5R)-2-(2-(3-acetyl-7-methyl-5-(2-methylpyr-azolo[1,5-a]pyrimidin-6-yl)-1H-indol-1-yl)acetyl)-N-(6-bromo-3-cycloprop-ylpyridin-2-yl)-5-methyl-2-azabicyclo[3.1.0]hexane-3-carboxamide], the 50% inhibitory concentration (IC50) was > 10000 nM.
To `CC(=O)c1cn(CC(=O)N2C[C@@](F)(CF)C[C@H]2C(=O)Nc2nc(C(F)(F)F)ccc2C)c2c(C)cc(-c3cnc4cc(C)nn4c3)cc12` [Compound 10, (2S,4R)-1-(2-(3-acetyl-7-methyl-5-(2-methylpyr-azolo[1,5-a]pyrimidin-6-yl)-1H-indol-1-yl)acetyl)-4-fluoro-4-(fluoromethyl)-N-(3-methyl-6-(trifluoro-methyl)pyridin-2-yl)pyr-rolidine-2-carboxamide] belongs < 1000 nM.
